Data taken from US11203595B2, “Aza-indazole compounds for use in tendon and/or ligament injuries” (NOVARTIS AG, priority 2016, dated 2021).
Like-named read-outs stand apart in the source and are kept apart here.

Experiments:
[1] = system: Scleraxis (Scx) gene transcriptional activation, TT-D6 Scx-luciferase (ScxL) cell line; test: SCX-LUC in vitro assay (scleraxis-luciferase reporter); assay type: cell-based, mouse; conditions: read-out: Scx-Luc (EC50 μM)
[2] = Cumulative release of microparticle formulations in PBS buffer (FIG. 1); assay type: physicochemical; conditions: incorporated into PLGA microparticles; following the initial burst; PBS buffer pH 7.4, 1% Tween 20
[3] = In-vivo release from microparticles in a rat model; conditions: PLGA microparticles
[4] = Mus musculus, 96 h, TT-D6 Scx-luciferase cells, 1 ng/ml TGFβ1, four days

Row | Compound | EC50 [1, 4] [µM] | further results
1 | Nc1n[nH]c2ccc(-c3ccc(S(=O)(=O)N[C@H]4CCC[C@H]4O)cc3Cl)nc12 [Example 35, 4-(3-amino-1H-pyrazolo[4,3-b]pyridin-5-yl)-3-chloro-N-((1S,2R)-2-hydroxycyclopentyl)benzenesulfonamide] | – | EC50 ([1]; Mus musculus, 96 h): 2.73 µM
2 | Nc1n[nH]c2ccc(-c3ccc(NS(=O)(=O)c4ccccc4)cc3Cl)nc12 [Example 46, N-(4-(3-amino-1H-pyrazolo[4,3-b]pyridin-5-yl)-3-chlorophenyl)benzenesulfonamide] | 0.01 | –
3 | Nc1n[nH]c2ccc(-c3ccc(S(=O)(=O)NC4CCC(O)(C(F)(F)F)CC4)cc3Cl)nc12 [4-(3-amino-1H-pyrazolo[4,3-b]pyridin-5-yl)-3-chloro-N-((1R,4R)-4-hydroxy-4-(trifluoromethyl)cyclohexyl)benzenesulfonamide] | – | EC50 ([1]; TT-D6 Scx-luciferase cells, 1 ng/ml TGFβ1, four days): > 10 µM
4 | CNS(=O)(=O)c1ccc(S(=O)(=O)Nc2ccc(-c3ccc4[nH]nc(N)c4n3)c(Cl)c2)cc1 [Example 76, N1-(4-(3-amino-1H-pyrazolo[4,3-b]pyridin-5-yl)-3-chlorophenyl)-N4-methylbenzene-1,4-disulfonamide] | 0.003 | –
5 | Nc1n[nH]c2ccc(-c3ccc(S(=O)(=O)N4CCC[C@H]4CO)cc3Cl)nc12 [(S)-(1-((4-(3-amino-1H-pyrazolo[4,3-b]pyridin-5-yl)-3-chlorophenyl)sulfonyl)pyrrolidin-2-yl)methanol] | > 10 | –
6 | Cc1cc(S(=O)(=O)N[C@H]2C[C@](O)(C(F)(F)F)C2)ccc1-c1ccc2[nH]nc(N)c2n1 [Example 2, 4-(3-amino-1H-pyrazolo[4,3-b]pyridin-5-yl)-N-((1s,3s)-3-hydroxy-3-(trifluoromethyl)cyclobutyl)-3-methylbenzenesulfonamide] | – | period of steady state release of drug [2]: 21 days; extended release in-vivo [3]: 4 weeks
7 | Nc1n[nH]c2ccc(-c3ccc(S(=O)(=O)NC4CCS(=O)(=O)CC4)cc3Cl)nc12 [Example 50, 4-(3-amino-1H-pyrazolo[4,3-b]pyridin-5-yl)-3-chloro-N-(1,1-dioxidotetrahydro-2H-thiopyran-4-yl)benzenesulfonamide] | > 10 | –
